Results taken from patent publication US20240116985A1, “STAPLED PEPTIDES AND METHODS THEREOF” (priority 2020, published 2024).
Where two headings read alike, the source gives them in different places.

How the values were obtained:
[1] = target: T1, full-length beta-Catenin (Uniprot ID P35222) (Homo sapiens, UniProt P35222); assay: Fluorescence polarization IC50 (beta-catenin / 5FAM-TCF4 10-53 competition); assay type: binding; conditions: fluorescence polarization; read-out: beta-Catenin FP IC50
T1 construct: 10 nM full-length beta-Catenin (Uniprot ID P35222)
T1 sequence (P35222 1-781): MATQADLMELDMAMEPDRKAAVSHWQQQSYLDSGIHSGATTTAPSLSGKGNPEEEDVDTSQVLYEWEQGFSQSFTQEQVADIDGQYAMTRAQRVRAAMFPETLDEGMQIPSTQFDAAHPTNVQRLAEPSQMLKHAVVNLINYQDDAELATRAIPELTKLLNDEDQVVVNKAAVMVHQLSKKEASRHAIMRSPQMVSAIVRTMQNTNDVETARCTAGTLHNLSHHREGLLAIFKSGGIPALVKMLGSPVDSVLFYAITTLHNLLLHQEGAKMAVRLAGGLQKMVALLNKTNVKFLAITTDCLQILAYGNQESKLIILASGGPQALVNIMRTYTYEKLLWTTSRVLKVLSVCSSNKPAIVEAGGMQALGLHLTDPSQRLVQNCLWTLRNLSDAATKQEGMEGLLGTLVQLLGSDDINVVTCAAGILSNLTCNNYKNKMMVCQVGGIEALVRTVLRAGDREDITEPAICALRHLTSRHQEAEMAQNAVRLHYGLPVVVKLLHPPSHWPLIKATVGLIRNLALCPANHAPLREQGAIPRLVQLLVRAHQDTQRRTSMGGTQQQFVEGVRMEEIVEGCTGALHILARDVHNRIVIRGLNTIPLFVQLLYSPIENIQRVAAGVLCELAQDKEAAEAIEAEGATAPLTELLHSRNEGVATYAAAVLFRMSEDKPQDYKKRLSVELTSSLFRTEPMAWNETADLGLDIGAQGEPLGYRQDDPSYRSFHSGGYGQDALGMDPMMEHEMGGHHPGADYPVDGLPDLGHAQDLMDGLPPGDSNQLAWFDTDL

[2] = target: T2, beta-catenin/TCF4 engagement (Homo sapiens, UniProt P35222); assay: Nano-BRET target engagement assay (B-cat-Halo & TCF4-Luc in HEK293 cells); assay type: cell-based; conditions: read-out: NanoBRET Abs IC50
T2 construct: expressed in transfected cells; host or cells: HEK293
T2 sequence (P35222 1-781): T1 sequence (P35222 1-781)

[3] = system: TCF/LEF luciferase Reporter in DLD1 cells; assay: TCF reporter assay (DLD1 TCF/LEF luciferase reporter, Bright-Glo); assay type: cell-based; conditions: read-out: DLD1 4% Abs IC50
In short: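 DLD1 cells stably carrying a TCF/LEF luciferase reporter were plated at 5000 cells/well in RPMI + 4% FBS and treated overnight with a 1:2 compound dilution series. Bright-Glo luminescence read on day 3; viability by CellTiter-Glo. Absolute IC50 determined.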

[4] = DLD1 reporter, 4%, absolute IC50

IC50 [1] [nM]	IC50 [2] [nM]	IC50 ([3]; DLD1 4%) [nM]	IC50 ([2]; absolute IC50) [nM]	IC50 [3, 4] [nM]	Structure (SMILES)
9	12300	5800	–	–	CC(=O)N1CCC[C@]12CC=CCCCC1(CCCC=CCCCOC(=O)N3CC[C@@](C(=O)N[C@@H](Cc4ccsc4)C(=O)N[C@@H](Cc4csc5ccccc45)C(=O)N[C@@H](CCC(N)=O)C(N)=O)(C3)NC(=O)[C@H](CC(C)C)NC(=O)[C@H](Cc3ccccc3)NC(=O)[C@H](C)NC(=O)[C@H](C)NC(=O)[C@H](CCn3cc(CC(C)(C)C(=O)O)nn3)NC(=O)[C@H](CC(=O)O)NC1=O)NC(=O)[C@H](CC(C)(C)C)NC(=O)[C@H](CC(=O)O)NC2=O (stereo partly drawn) [I-2077, Ac-PL3-Asp-Npg-B5-Asp-[CH2CMe2CO2H]TriAzDab-Ala-Ala-Phe-Leu-PyrS2-3Thi-BztA-Gln-NH2]
5	9200	9700	–	–	CC(=O)N1CCC[C@]12CC=CCCCC1(CCCC=CCCCOC(=O)N3CC[C@@](C(=O)N[C@@H](Cc4ccsc4)C(=O)N[C@@H](Cc4csc5ccccc45)C(=O)N[C@@H](CCC(N)=O)C(N)=O)(C3)NC(=O)[C@H](CC(C)C)NC(=O)[C@H](Cc3ccccc3)NC(=O)[C@H](C)NC(=O)[C@H](C)NC(=O)[C@H](Cn3cc(CC(=O)O)nn3)NC(=O)[C@H](CC(=O)O)NC1=O)NC(=O)[C@H](CC(C)(C)C)NC(=O)[C@H](CC(=O)O)NC2=O (stereo partly drawn) [I-2084, Ac-PL3-Asp-Npg-B5-Asp-[CH2CO2H]TriAzDap-Ala-Ala-Phe-Leu-PyrS2-3Thi-BztA-Gln-NH2]
7	–	–	3400	2600	CC(=O)N1CCC[C@]12CC=CCCCC1(CCCC=CCCCOC(=O)N3CC[C@@](C(=O)N[C@@H](Cc4ccccc4C(F)(F)F)C(=O)N[C@@H](Cc4csc5ccccc45)C(=O)N[C@@H](CO)C(N)=O)(C3)NC(=O)[C@H](CC(C)C)NC(=O)[C@H](Cc3ccccc3)NC(=O)[C@H](C)NC(=O)[C@H](C)NC(=O)[C@H](Cn3cc(C(C)(C)C(=O)O)nn3)NC(=O)[C@H](CC(=O)O)NC1=O)NC(=O)[C@H](CC(C)(C)C)NC(=O)[C@H](CC(=O)O)NC2=O (stereo partly drawn) [I-2374, Ac-PL3-Asp-Npg-B5-Asp-[CMe2CO2H]TriAzDap-Ala-Ala-Phe-Leu-PyrS2-2F3MeF-BztA-Ser-NH2]
31	–	–	4800	1000	CC(=O)N1CCC[C@]12CC=CCCCC1(CCCC=CCCCOC(=O)N3CC[C@@](C(=O)N[C@@H](Cc4ccccc4C(F)(F)F)C(=O)N[C@@H](Cc4csc5ccccc45)C(=O)N[C@@H](CCC(N)=O)C(=O)N[C@@H](CC(C)C)C(=O)N[C@@H](C)C(N)=O)(C3)NC(=O)[C@H](CC(C)C)NC(=O)[C@H](Cc3ccccc3)NC(=O)[C@H](C)NC(=O)[C@H](C)NC(=O)[C@H](Cc3cccc(C(=O)O)c3)NC(=O)[C@H](CC(=O)O)NC1=O)NC(=O)[C@H](CC(C)(C)C)NC(=O)[C@H](CC(=O)O)NC2=O (stereo partly drawn) [I-2378, Ac-PL3-Asp-Npg-B5-Asp-3COOHF-Ala-Ala-Phe-Leu-PyrS2-2F3MeF-BztA-Gln-Leu-Ala-NH2]
37	–	–	4000	7600	CC(=O)N1CCC[C@]12CC=CCCCC1(CCCC=CCCCOC(=O)N3CC[C@@](C(=O)N[C@@H](Cc4ccccc4C(F)(F)F)C(=O)N[C@@H](Cc4csc5ccccc45)C(=O)N[C@@H](CCC(N)=O)C(=O)N[C@@H](CC(C)C)C(=O)N[C@@H](CCC(N)=O)C(N)=O)(C3)NC(=O)[C@H](CC(C)C)NC(=O)[C@H](Cc3ccccc3)NC(=O)[C@H](C)NC(=O)[C@H](C)NC(=O)[C@H](Cc3cccc(C(=O)O)c3)NC(=O)[C@H](CC(=O)O)NC1=O)NC(=O)[C@H](CC(C)(C)C)NC(=O)[C@H](CC(=O)O)NC2=O (stereo partly drawn) [I-2382, Ac-PL3-Asp-Npg-B5-Asp-3COOHF-Ala-Ala-Phe-Leu-PyrS2-2F3MeF-BztA-Gln-Leu-Gln-NH2]
77	–	–	4200	800	CC(=O)N1CCC[C@]12CC=CCCCC1(CCCC=CCCCOC(=O)N3CC[C@@](C(=O)N[C@@H](Cc4ccccc4C(F)(F)F)C(=O)N[C@@H](Cc4csc5ccccc45)C(=O)N[C@@H](CCC(N)=O)C(=O)N[C@@H](CC(C)C)C(=O)N[C@H](C(N)=O)[C@@H](C)O)(C3)NC(=O)[C@H](CC(C)C)NC(=O)[C@H](Cc3ccccc3)NC(=O)[C@H](C)NC(=O)[C@H](C)NC(=O)[C@H](Cc3cccc(C(=O)O)c3)NC(=O)[C@H](CC(=O)O)NC1=O)NC(=O)[C@H](CC(C)(C)C)NC(=O)[C@H](CC(=O)O)NC2=O (stereo partly drawn) [I-2383, Ac-PL3-Asp-Npg-B5-Asp-3COOHF-Ala-Ala-Phe-Leu-PyrS2-2F3MeF-BztA-Gln-Leu-Thr-NH2]
5	–	–	4600	1100	CC(=O)N1CCC[C@]12CC=CCCCC1(CCCC=CCCCOC(=O)N3CC[C@@](C(=O)N[C@@H](Cc4ccccc4C(F)(F)F)C(=O)N[C@@H](Cc4csc5ccccc45)C(=O)N[C@@H](CCC(N)=O)C(=O)N[C@@H](CC(C)C)C(=O)N[C@@H](CO)C(N)=O)(C3)NC(=O)[C@H](CC(C)C)NC(=O)[C@H](Cc3ccccc3)NC(=O)[C@H](C)NC(=O)[C@H](C)NC(=O)[C@H](Cc3cccc(C(=O)O)c3)NC(=O)[C@H](CC(=O)O)NC1=O)NC(=O)[C@H](CC(C)(C)C)NC(=O)[C@H](CC(=O)O)NC2=O (stereo partly drawn) [I-2384, Ac-PL3-Asp-Npg-B5-Asp-3COOHF-Ala-Ala-Phe-Leu-PyrS2-2F3MeF-BztA-Gln-Leu-Ser-NH2]
563	–	–	4000	1800	CC[C@H](C)[C@H](NC(=O)[C@H](CC(C)C)NC(=O)[C@H](CCC(N)=O)NC(=O)[C@H](Cc1csc2ccccc12)NC(=O)[C@H](Cc1ccccc1C(F)(F)F)NC(=O)[C@]12CCN(C1)C(=O)OCCCC=CCCCC1(CCCC=CC[C@]3(CCCN3C(C)=O)C(=O)N[C@@H](CC(=O)O)C(=O)N[C@@H](CC(C)(C)C)C(=O)N1)C(=O)N[C@@H](CC(=O)O)C(=O)N[C@@H](Cc1cccc(C(=O)O)c1)C(=O)N[C@@H](C)C(=O)N[C@@H](C)C(=O)N[C@@H](Cc1ccccc1)C(=O)N[C@@H](CC(C)C)C(=O)N2)C(N)=O (stereo partly drawn) [I-2385, Ac-PL3-Asp-Npg-B5-Asp-3COOHF-Ala-Ala-Phe-Leu-PyrS2-2F3MeF-BztA-Gln-Leu-Ile-NH2]
75.5	–	–	2800	700	CC(=O)N1CCC[C@]12CC=CCCCC1(CCCC=CCCCOC(=O)N3CC[C@@](C(=O)N[C@@H](Cc4ccccc4C(F)(F)F)C(=O)N[C@@H](Cc4csc5ccccc45)C(=O)N[C@@H](CCC(N)=O)C(=O)N[C@@H](CC(C)C)C(=O)NC(C)(C)C(N)=O)(C3)NC(=O)[C@H](CC(C)C)NC(=O)[C@H](Cc3ccccc3)NC(=O)[C@H](C)NC(=O)[C@H](C)NC(=O)[C@H](Cc3cccc(C(=O)O)c3)NC(=O)[C@H](CC(=O)O)NC1=O)NC(=O)[C@H](CC(C)(C)C)NC(=O)[C@H](CC(=O)O)NC2=O (stereo partly drawn) [I-2386, Ac-PL3-Asp-Npg-B5-Asp-3COOHF-Ala-Ala-Phe-Leu-PyrS2-2F3MeF-BztA-Gln-Leu-Aib-NH2]
133	–	–	5700	1200	CC(=O)N1CCC[C@]12CC=CCCCC1(CCCC=CCCCOC(=O)N3CC[C@@](C(=O)N[C@@H](Cc4ccccc4C(F)(F)F)C(=O)N[C@@H](Cc4csc5ccccc45)C(=O)N[C@@H](CCC(N)=O)C(=O)N[C@@H](CC(C)C)C(=O)NC4(C(N)=O)CCC4)(C3)NC(=O)[C@H](CC(C)C)NC(=O)[C@H](Cc3ccccc3)NC(=O)[C@H](C)NC(=O)[C@H](C)NC(=O)[C@H](Cc3cccc(C(=O)O)c3)NC(=O)[C@H](CC(=O)O)NC1=O)NC(=O)[C@H](CC(C)(C)C)NC(=O)[C@H](CC(=O)O)NC2=O (stereo partly drawn) [I-2388, Ac-PL3-Asp-Npg-B5-Asp-3COOHF-Ala-Ala-Phe-Leu-PyrS2-2F3MeF-BztA-Gln-Leu-Cbg-NH2]

Structure (SMILES)	IC50 [1] [nM]	IC50 [2] [nM]	IC50 ([3]; DLD1 4%) [nM]	IC50 ([2]; absolute IC50) [nM]	IC50 [3, 4] [nM]
CC(=O)N1CCC[C@]12CC=CCCCC1(CCCC=CCCCOC(=O)N3CC[C@@](C(=O)N[C@@H](Cc4ccsc4)C(=O)N[C@@H](Cc4csc5ccccc45)C(=O)N[C@@H](CC(N)=O)C(=O)N[C@@H](CC(C)C)C(=O)N[C@@H](CC(C)C)C(=O)N[C@@H](CC(C)C)C(N)=O)(C3)NC(=O)[C@H](CC(C)C)NC(=O)[C@H](Cc3ccccc3)NC(=O)[C@H](C)NC(=O)[C@H](C)NC(=O)[C@H](Cc3cccc(C(=O)O)c3)NC(=O)[C@H](CC(=O)O)NC1=O)NC(=O)[C@H](CC(C)(C)C)NC(=O)[C@H](CC(=O)O)NC2=O (stereo partly drawn) [I-2276, Ac-PL3-Asp-Npg-B5-Asp-3COOHF-Ala-Ala-Phe-Leu-PyrS2-3Thi-BztA-Asn-Leu-Leu-Leu-NH2]	157	–	–	4000	3900
